In the NIST ThermoML archive (doi:10.1021/je0497000):
± gives the expanded uncertainty stated by the source. Each block holds one molecule with its values, some of them ahead of it.

Assays:
[1] = Liquid; for mass density / speed of sound: 298.15 K, 101.3 kPa
[2] = xn = mol fraction of the nth substance listed; conditions: 298.15 K, 101.3 kPa, Liquid

Compound: CC(C)=O [acetone]
- mass density [1]: 784.37 ± 0.31 kg/m3
- speed of sound [1]: 1162 ± 2 m/s
- Normal boiling temperature [1]: 56.12 ± 0.13 °C

Compound: CC(C)=O [acetone] + COC(=O)OC
- mass density ([2]; x1 = 1): 784.37 ± 0.31 kg/m3
- speed of sound ([2]; x1 = 1): 1162 ± 2 m/s

Compound: CCC(C)=O [butanone]
- mass density [1]: 799.7 ± 0.35 kg/m3
- speed of sound [1]: 1192 ± 2 m/s
- Normal boiling temperature [1]: 79.63 ± 0.13 °C

Compound: CCC(C)=O [butanone] + COC(=O)OC
- mass density ([2]; x1 = 0.0499): 1049.31 ± 0.54 kg/m3
- speed of sound ([2]; x1 = 0.0499): 1199 ± 2 m/s
- mass density ([2]; x1 = 0.0999): 1035.29 ± 0.51 kg/m3
- speed of sound ([2]; x1 = 0.0999): 1198 ± 2 m/s
- mass density ([2]; x1 = 0.1994): 1007.79 ± 0.47 kg/m3
- speed of sound ([2]; x1 = 0.1994): 1196 ± 2 m/s
- mass density ([2]; x1 = 0.2996): 980.5 ± 0.44 kg/m3
- speed of sound ([2]; x1 = 0.2996): 1194 ± 2 m/s
- mass density ([2]; x1 = 0.3986): 953.88 ± 0.42 kg/m3
- speed of sound ([2]; x1 = 0.3986): 1192 ± 2 m/s
- mass density ([2]; x1 = 0.5027): 926.3 ± 0.41 kg/m3
- speed of sound ([2]; x1 = 0.5027): 1191 ± 2 m/s
- mass density ([2]; x1 = 0.6014): 900.51 ± 0.38 kg/m3
- speed of sound ([2]; x1 = 0.6014): 1190 ± 2 m/s
- mass density ([2]; x1 = 0.7102): 872.49 ± 0.36 kg/m3
- speed of sound ([2]; x1 = 0.7102): 1190 ± 2 m/s
- mass density ([2]; x1 = 0.8038): 848.69 ± 0.35 kg/m3
- speed of sound ([2]; x1 = 0.8038): 1191 ± 2 m/s
- mass density ([2]; x1 = 0.9043): 823.48 ± 0.35 kg/m3
- speed of sound ([2]; x1 = 0.9043): 1191 ± 2 m/s
- mass density ([2]; x1 = 0.9514): 811.75 ± 0.35 kg/m3
- speed of sound ([2]; x1 = 0.9514): 1191 ± 2 m/s
- mass density ([2]; x1 = 1): 799.7 ± 0.35 kg/m3
- speed of sound ([2]; x1 = 1): 1192 ± 2 m/s

Compound: COC(=O)OC [dimethyl carbonate]
- mass density [1]: 1063.33 ± 0.56 kg/m3
- speed of sound [1]: 1198 ± 2 m/s
- Normal boiling temperature [1]: 90.31 ± 0.13 °C

Compound: COC(=O)OC [dimethyl carbonate] + CC(C)=O
- mass density ([2]; x2 = 0): 1063.33 ± 0.56 kg/m3
- speed of sound ([2]; x2 = 0): 1198 ± 2 m/s
- mass density ([2]; x2 = 0.0447): 1052.64 ± 0.53 kg/m3
- speed of sound ([2]; x2 = 0.0447): 1196 ± 2 m/s
- mass density ([2]; x2 = 0.0906): 1041.54 ± 0.51 kg/m3
- speed of sound ([2]; x2 = 0.0906): 1195 ± 2 m/s
- mass density ([2]; x2 = 0.1886): 1017.22 ± 0.45 kg/m3
- speed of sound ([2]; x2 = 0.1886): 1192 ± 2 m/s
- mass density ([2]; x2 = 0.2886): 991.68 ± 0.4 kg/m3
- speed of sound ([2]; x2 = 0.2886): 1188 ± 2 m/s
- mass density ([2]; x2 = 0.3941): 963.86 ± 0.37 kg/m3
- speed of sound ([2]; x2 = 0.3941): 1184 ± 2 m/s
- mass density ([2]; x2 = 0.4933): 936.83 ± 0.35 kg/m3
- speed of sound ([2]; x2 = 0.4933): 1180 ± 2 m/s
- mass density ([2]; x2 = 0.5988): 907.17 ± 0.32 kg/m3
- speed of sound ([2]; x2 = 0.5988): 1176 ± 2 m/s
- mass density ([2]; x2 = 0.7021): 877.06 ± 0.3 kg/m3
- speed of sound ([2]; x2 = 0.7021): 1172 ± 2 m/s
- mass density ([2]; x2 = 0.7974): 848.41 ± 0.29 kg/m3
- speed of sound ([2]; x2 = 0.7974): 1168 ± 2 m/s
- mass density ([2]; x2 = 0.9053): 814.88 ± 0.29 kg/m3
- speed of sound ([2]; x2 = 0.9053): 1165 ± 2 m/s
- mass density ([2]; x2 = 0.9534): 799.51 ± 0.3 kg/m3
- speed of sound ([2]; x2 = 0.9534): 1163 ± 2 m/s

Compound: COC(=O)OC [dimethyl carbonate] + CCC(C)=O
- mass density ([2]; x2 = 0): 1063.33 ± 0.56 kg/m3
- speed of sound ([2]; x2 = 0): 1198 ± 2 m/s

Compound: COC(=O)OC [dimethyl carbonate] + CCCC(C)=O
- mass density ([2]; x2 = 0): 1063.33 ± 0.56 kg/m3
- speed of sound ([2]; x2 = 0): 1198 ± 2 m/s

- mass density [1]: 801.39 ± 0.35 kg/m3
- speed of sound [1]: 1212 ± 2 m/s
- Normal boiling temperature [1]: 102.21 ± 0.13 °C
Compound: CCCC(C)=O [pentan-2-one]

- mass density ([2]; x1 = 0.0498): 1046.71 ± 0.53 kg/m3
- speed of sound ([2]; x1 = 0.0498): 1199 ± 2 m/s
- mass density ([2]; x1 = 0.1004): 1030.33 ± 0.51 kg/m3
- speed of sound ([2]; x1 = 0.1004): 1198 ± 2 m/s
- mass density ([2]; x1 = 0.1996): 999.49 ± 0.47 kg/m3
- speed of sound ([2]; x1 = 0.1996): 1197 ± 2 m/s
- mass density ([2]; x1 = 0.3009): 969.77 ± 0.44 kg/m3
- speed of sound ([2]; x1 = 0.3009): 1198 ± 2 m/s
- mass density ([2]; x1 = 0.398): 942.67 ± 0.42 kg/m3
- speed of sound ([2]; x1 = 0.398): 1198 ± 2 m/s
- mass density ([2]; x1 = 0.5036): 914.75 ± 0.41 kg/m3
- speed of sound ([2]; x1 = 0.5036): 1200 ± 2 m/s
- mass density ([2]; x1 = 0.6017): 890.1 ± 0.38 kg/m3
- speed of sound ([2]; x1 = 0.6017): 1201 ± 2 m/s
- mass density ([2]; x1 = 0.7046): 865.52 ± 0.36 kg/m3
- speed of sound ([2]; x1 = 0.7046): 1203 ± 2 m/s
- mass density ([2]; x1 = 0.8012): 843.59 ± 0.35 kg/m3
- speed of sound ([2]; x1 = 0.8012): 1206 ± 2 m/s
- mass density ([2]; x1 = 0.901): 821.94 ± 0.35 kg/m3
- speed of sound ([2]; x1 = 0.901): 1209 ± 2 m/s
- mass density ([2]; x1 = 0.9504): 811.55 ± 0.35 kg/m3
- speed of sound ([2]; x1 = 0.9504): 1211 ± 2 m/s
- mass density ([2]; x1 = 1): 801.39 ± 0.35 kg/m3
- speed of sound ([2]; x1 = 1): 1212 ± 2 m/s
Compound: CCCC(C)=O [pentan-2-one] + COC(=O)OC
